Experimental data published in patent US20070088090A1, “Alpha-bulnesene, its preparation and its use” (Yangsen Biotechnology Co., Ltd., priority 2005, published 2007).

Tests used:
[1] = tested on: PAF-induced platelet aggregation; test: PAF-induced platelet aggregation in rabbit washed platelets; type: cell-based; settings: PAF 5 nM, read-out: IC50, inhibition of platelet aggregation induced by PAF
Description: Blood samples were collected from the marginal ear artery of New Zealand white rabbits. The blood was then treated to obtained platelet-rich plasma (PRP) mixed with EDTA. The platelet pellet was obtained from the EDTA-anticoagulated PRP by centrifugation. The pellet was then suspended in Tyrode solution and incubated. Platelet numbers were then counted.
The platelet suspension was stirred with solvent of test compound in solvent of different concentrations. Aggregation inducer PAF was then added to trigger the aggregation. Aggregation was determined by the transmission method using a platelet aggregation chromogenic kinetic system. The initial transmittance of the Ca^2+-containing Tyrode solution was taken as 0% aggregation and that of the platelet suspension as 100% aggregation. […] Percent inhibition by a compound was calculated.
Platelet suspension was prepared as follows. […]
Platelet aggregation was measured turbidimetrically with a light-transmission Platelet Aggregation Chromogenic Kinetic System PACK4 (Helena Laboratories, Beaumont, Tex., USA) with some modifications. […] The absorbance of the Tyrode's solution was taken as 0% aggregation and that of the platelet suspension as 100% aggregation. The extent of platelet aggregation was measured as the maximal increase of light transmission within 4 min after addition of the inducers. […]

[2] = tested on: AA-induced platelet aggregation; test: AA-induced platelet aggregation in rabbit washed platelets; type: cell-based; settings: AA 100 μM
Description: Platelet suspension was prepared as follows. Blood was collected from the marginal ear vein of New Zealand White rabbits. The blood was then anticoagulated with acid citrate dextrose (ACD, 1:6, v/v) and centrifuged for 8 min at 1000×g at room temperature. The upper portion was collected as platelet-rich plasma (PRP) and mixed with EDTA to a final concentration of 5 mM. The platelet pellets were obtained from EDTA-mixed PRP by centrifugation for 12 min at 2000×g. The platelet pellets were suspended with Ca^2+-free Tyrode's solution, and then incubated with apyrase (1 unit mL^−1) for 15 min at 37° C. […] The concentration of platelets was adjusted to 2.5×10^8 platelets mL^−1.
Platelet aggregation was measured turbidimetrically with a light-transmission Platelet Aggregation Chromogenic Kinetic System PACK4 (Helena Laboratories, Beaumont, Tex., USA) with some modifications. […] Aggregation was induced with PAF (5 nM) and AA (100 μM). The absorbance of the Tyrode's solution was taken as 0% aggregation and that of the platelet suspension as 100% aggregation. The extent of platelet aggregation was measured as the maximal increase of light transmission within 4 min after addition of the inducers. When isopropanol was used as the solvent the final concentration was fixed at 0.5% (v/v) to eliminate the effect of the solvent. All glassware was siliconized.

PAF receptor = molecular target: T1, PAF receptor (Oryctolagus cuniculus, UniProt G1TEI7); test: [3H]PAF receptor binding assay using rabbit washed platelets
T1 construct: from tissue; host or cells: rabbit washed platelets (intact)
Description: [^3H]PAF receptor binding assay is prepared using rabbit washed platelets. […] The reaction mixture was incubated at 4° C. for 2 hrs and then 5 mL of BSA-containing saline solution was added to terminate the reactions. The free and bound ligands were separated by filtration using a Whtman GF/C glass fiber filters which were presoaked with ice-cold water. The filters were rapidly washed with the same solution and then dried and placed into vials containing 10 mL of the scintillation fluid. Radioactivity was measured in a liquid scintillation counter (Beckman LS3801). The difference between the total radioactivity of bound [^3H]PAF in the absence and in the presence of excess unlabeled PAF is defined as specific binding of the radio-labeled ligand. In a batch of experiments, [^3H]PAF was incubated with different concentrations of PAF receptor antagonists, and the effect of the antagonist on the specific binding was expressed as percentage inhibition of the control.
Percent inhibition (%)=[100−(B/A×100)](%)
wherein A represents percent aggregation in control added and B represents percent aggregation in compound added.

TXB2 formation = test: Thromboxane B2 formation induced by AA in rabbit washed platelets (EIA); type: cell-based; settings: AA 100 μM, 6 min
Description: (§1) After challenging platelets with AA (100 μM) for 6 min, 1 mM EDTA and 20 μM indomethacin were added to terminate the reaction. By centrifugation for 5 min at 4° C. and 10,000×g, the TXB2 and PGE2 in the supernatants were assayed using EIA kits according to the procedure described by the manufacturer.

PGE2 formation = test: Prostaglandin E2 formation induced by AA in rabbit washed platelets (EIA); type: cell-based; settings: AA 100 μM
Description: as §1

[3] = tested on: PAF-induced intracellular Ca2+ release; test: PAF-induced intracellular Ca2+ release in fluo-3-loaded platelets; type: cell-based, rabbit; settings: PAF 5 nM, 2.5-50 μM, read-out: IC50, inhibition of PAF-induced intracellular Ca2+ release
Description: Platelets pelleted from PRP were resuspended in Ca^2+-free Tyrode's solution, and then incubated with fluo-3/AM (2 μM) at 37° C. for 30 min. In order to prevent leakage of dye, probenecid (2.5 mM) was added to the buffers throughout the experiments. After washing, the fluo-3-loaded platelets were finally suspended in Ca^2+-free Tyrode's solution without heparin at a concentration of 1.3×10^8 platelets mL^−1. The fluo-3-loaded platelets were preincubated with α-bulnesene in the presence of extracellular calcium (1 mM) at 37° C. for 2 min prior to addition of PAF. Fluorescence (Ex 505 nm, Em 530 nm) was measured with a fluorescence spectrophotometer (Model F4500; Hitachi, Tokyo, Japan). At the end of the experiment, the cells were treated with digitonin (20%) followed by the addition of EGTA (50 mM) to obtain the maximal and minimal fluorescence, respectively. [Ca^2+]i was calculated as described for fluo-3/AM using the Ca^2+-dye dissociation constant 864 nM.

rabbit platelets = test: Cytotoxicity assay in rabbit platelets; type: cell-based; settings: 12.5-50 μM, 30 min treatment, data not shown

T1 sequence (G1TEI7 1-342): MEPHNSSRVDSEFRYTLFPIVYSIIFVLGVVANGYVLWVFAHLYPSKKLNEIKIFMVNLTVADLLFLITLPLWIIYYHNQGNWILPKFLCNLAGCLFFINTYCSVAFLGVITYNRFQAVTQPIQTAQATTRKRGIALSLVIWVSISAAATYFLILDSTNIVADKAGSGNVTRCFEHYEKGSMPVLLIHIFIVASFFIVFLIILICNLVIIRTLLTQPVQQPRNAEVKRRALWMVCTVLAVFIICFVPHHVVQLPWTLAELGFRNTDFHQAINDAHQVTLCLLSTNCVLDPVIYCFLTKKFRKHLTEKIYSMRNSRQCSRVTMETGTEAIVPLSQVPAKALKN

`CCCCCCCCCCCCCCCCCCNC(=O)OCC(COP(=O)([O-])OCC[n+]1ccsc1)OC` (centres unmarked) [CV-3988] was tested, and the IC50 [1] was 2.4 ± 1.01 µM, the “inhibition on AA-induced platelet aggregation” value [2] was “no inhibition” and the “percent inhibition for [3H]PAF binding” value (PAF receptor; 10 μM, n=3) was 10.10±1.74%.
`COc1ccc2c(c1)c(CC(=O)O)c(C)n2C(=O)c1ccc(Cl)cc1` [Indomethacin, indomethacin] was tested, and the inhibition at 1 µM (TXB2 formation; Oryctolagus cuniculus, Platelet, 0.1 h, 1 μM, read-out: percent inhibition of TXB2 formation) was 98.05 ± 0.16% and the “PGE2 formation in the presence of AA” value (PGE2 formation; indomethacin, concentration not restated (1 μM as positive control)) was “inhibited”.
In the case of `O=C(O)c1cc2cc(Cc3cccnc3)ccc2o1` [furegrelate], the inhibition at 300 µM (TXB2 formation; Oryctolagus cuniculus, Platelet, 0.1 h, 300 μM, read-out: percent inhibition of TXB2 formation) is reported as 96.49 ± 0.78% and the “PGE2 formation in the presence of AA” value (PGE2 formation; 300 μM) is reported as “reversely enhanced”.
`C=C(C)C1CCC(C)=C2CCC(C)C2C1` (stereo not drawn) [α-bulnesene, 1β,4-dimethyl-7β-isopropenyl-1,2,3,5,6,7,8,8aα-octahydroazulene] showed an IC50 [1] of 24.5 ± 2.45 µM, an IC50 ([2]; read-out: IC50, inhibition of platelet aggregation induced by AA) of 42.5 ± 5.97 µM and an IC50 (PAF receptor; 0.2 nM [3H]PAF, 4° C., 2 hrs) of 17.6 ± 5.68 µM. The IC50 [3] was 19.6 ± 1.32 µM, the “TXB2 formation stimulated by AA” value (TXB2 formation; 25-100 μM) was “inhibited” and the “PGE2 formation in the presence of AA” value (PGE2 formation; 25-100 μM, 6 min) was “inhibited”. The “toxicity in rabbit platelets” value (rabbit platelets) was “did not have any toxicity”.
